According to patent US20260022142A1, “MACROCYCLIC IMMUNOMODULATORS” (Bristol-Myers Squibb Company, priority 2022, published 2026):
pIC50: −log10 of the molar value. Numbered stars: 1 amine (or outer) side, 2 acyl side, 3 side chain; on linkers, the order of the positions; unused ones are H or OH. Bridge positions count the residues as written; N and C are the ends. Square brackets hold non-standard residues; d marks the D form. Peptide text beside a SMILES is read from it. * marks the point of attachment. Phe(4-COOH) = N[C@@H](Cc1ccc(C(=O)O)cc1)C(=O)O; Bip = N[C@@H](Cc1ccc(-c2ccccc2)cc1)C(=O)O; Phe(3-OMe) = COc1cccc(C[C@H](N)C(=O)O)c1; Phe(4-CN) = N#Cc1ccc(C[C@H](N)C(=O)O)cc1; Phe(3-Me) = Cc1cccc(C[C@H](N)C(=O)O)c1; γGlu = O=C(O)[C@H](CCC(=O)[*:2])N[*:1]; βAsp = O=C(O)[C@H](CC(=O)[*:2])N[*:1]; Val(3-OH) = CC(C)(O)[C@H](N)C(=O)O; Cha = N[C@@H](CC1CCCCC1)C(=O)O; Cit = NC(=O)NCCC[C@H](N)C(=O)O; Carboxymethyl = O=C(O)C*; Orn = NCCC[C@H](N)C(=O)O; Aun = NCCCCCCCCCCC(=O)O; Dab = NCC[C@H](N)C(=O)O; Dap = NC[C@H](N)C(=O)O; AEEA = NCCOCCOCC(=O)O

Biological target: T1, PD-1/PD-L1 interaction (PE-labeled human PD-L1-Ig binding to Jurkat cell line over-expressing human PD-1) (Homo sapiens, UniProt Q15116)
T1 construct: expressed in transfected cells; host or cells: Jurkat
Assay: Jurkat-PD-1 Cell Binding High-Content Screening Assay (CBA)
Assay type: cell-based
Settings: Jurkat cell line over-expressing human PD-1; PE-labeled PD-L1-Ig 20 nM final; read-out: Jurkat hPD1-PDL1 IC50
Description: Example 2: Jurkat-PD-1 Cell Binding High-Content Screening Assay (CBA)
Phycoerythrin (PE) was covalently linked to the Ig epitope tag of human PD-L1-Ig and fluorescently-labeled PD-L1-Ig was used for binding studies with a Jurkat cell line over-expressing human PD-1 (Jurkat-PD-1). Briefly, 8×10^3 Jurkat-hPD-1 cells were seeded into 384 well plates in 20 μl of DMEM supplemented with 10% fetal calf serum. 100 nl of compound was added to cells followed by incubation at 37° C. for 2 h. Then, 5 μl of PE-labeled PD-L1-Ig (20 nM final), diluted in DMEM supplemented with 10% fetal calf serum. After 1 hour incubation, cells were fixed with 4% paraformaldehyde in dPBS containing 10 μg/ml Hoechst 33342 and then washed 3× in 100 μl dPBS. Data was collected and processed using a Cell Insight NXT High Content Imager and associated software.

T1 sequence (Q15116 25-288): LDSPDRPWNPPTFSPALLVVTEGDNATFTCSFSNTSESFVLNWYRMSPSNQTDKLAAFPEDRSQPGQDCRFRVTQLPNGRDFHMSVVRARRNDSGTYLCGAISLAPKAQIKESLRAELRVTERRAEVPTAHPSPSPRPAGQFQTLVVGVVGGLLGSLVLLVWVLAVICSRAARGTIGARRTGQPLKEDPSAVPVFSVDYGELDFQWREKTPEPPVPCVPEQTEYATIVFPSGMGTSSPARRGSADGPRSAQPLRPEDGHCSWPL

Compound | pIC50
Cc1cccc(C[C@@H]2NC(=O)[C@H](CC(=O)O)NC(=O)[C@H](Cc3ccc(OCC(=O)O)cc3)NC(=O)[C@H](CN)NC(=O)CSC[C@@H](C(=O)N[C@@H](CCN)C(=O)NCCCCCCCCCCCCC(=O)O)NC(=O)[C@H](C(C)O)NC(=O)[C@H](C(C)C)NC(=O)[C@H](CC3CCCCC3)NC(=O)[C@H](CCN)NC(=O)[C@@H](CC(C)C)NC(=O)[C@H](CCCN)NC(=O)[C@H](CCCNC(N)=O)NC(=O)[C@H](Cc3ccc(-c4ccccc4)cc3)NC(=O)[C@H](C(C)C)NC2=O)c1 (mixture of isomers) [Compound 3126] | 7.16
COc1cccc(C[C@@H]2NC(=O)[C@H](CC(=O)O)NC(=O)[C@H](Cc3ccc(OCC(=O)O)cc3)NC(=O)[C@H](CN)NC(=O)CSC[C@@H](C(=O)N[C@@H](CCN)C(=O)NCCOCCOCC(=O)NCCCCCCCCCCC(=O)O)NC(=O)[C@H](CCCN)NC(=O)[C@H](C(C)C)NC(=O)[C@H](CC3CCCCC3)NC(=O)[C@H](CCN)NC(=O)[C@@H](CC(C)C)NC(=O)[C@H](CCCN)NC(=O)[C@H](Cc3ccc(O)cc3)NC(=O)[C@H](Cc3ccc(-c4ccccc4)cc3)NC(=O)[C@H](Cc3ccc(OCC(=O)O)cc3)NC2=O)c1 [Compound 1001] ({CH2CO}-[Dap]Y(Carboxymethyl)D[Phe(3-OMe)]Y(Carboxymethyl)[Bip]Y[Orn][dL][Dab][Cha]V[Orn]C[Dab][AEEA][Aun]-OH; thioether N-14) | 8.14
Cc1cccc(C[C@@H]2NC(=O)[C@H](CC(=O)O)NC(=O)[C@H](Cc3ccc(C(=O)O)cc3)NC(=O)[C@H](Cc3ccc(C#N)cc3)NC(=O)CSC[C@@H](C(=O)N[C@@H](CCN)C(=O)NCCCCCCCCCCC(=O)O)NC(=O)[C@H](CO)NC(=O)[C@H](C(C)(C)O)NC(=O)[C@H](CC3CCCCC3)NC(=O)[C@H](CCN)NC(=O)[C@@H](CC(C)C)NC(=O)[C@H](CCCN)NC(=O)[C@H](Cc3ccc(OCC(=O)O)cc3)NC(=O)[C@H](Cc3ccc(-c4ccccc4)cc3)NC(=O)[C@H](Cc3ccc(OCC(=O)O)cc3)NC2=O)c1 [Compound 1003] ({CH2CO}-[Phe(4-CN)][Phe(4-COOH)]D[Phe(3-Me)]Y(Carboxymethyl)[Bip]Y(Carboxymethyl)[Orn][dL][Dab][Cha][Val(3-OH)]SC[Dab][Aun]-OH; thioether N-14) | 7.83
Cc1cccc(C[C@@H]2NC(=O)[C@H](CC(=O)O)NC(=O)[C@H](Cc3ccc(OCC(=O)O)cc3)NC(=O)[C@H](CN)NC(=O)CSC[C@@H](C(=O)N[C@@H](C)C(=O)N[C@@H](CCC(=O)O)C(=O)NCCCCCCCCCCC(=O)O)NC(=O)[C@H]([C@@H](C)O)NC(=O)[C@H](C(C)C)NC(=O)[C@H](CC3CCCCC3)NC(=O)[C@H](CCN)NC(=O)[C@@H](CC(C)C)NC(=O)[C@H](CCCN)NC(=O)[C@H](CCCNC(N)=O)NC(=O)[C@H](Cc3ccc(-c4ccccc4)cc3)NC(=O)[C@H](C(C)C)NC2=O)c1 [Compound 1005] ({CH2CO}-[Dap]Y(Carboxymethyl)D[Phe(3-Me)]V[Bip][Cit][Orn][dL][Dab][Cha]VTCAE[Aun]-OH; thioether N-14) | 8.96
Cc1cccc(C[C@@H]2NC(=O)[C@H](CC(=O)O)NC(=O)[C@H](Cc3ccc(OCC(=O)O)cc3)NC(=O)[C@H](CN)NC(=O)CSC[C@@H](C(=O)N[C@@H](C)C(=O)N[C@@H](CC(=O)O)C(=O)NCCOCCOCC(=O)NCCCCCCCCCCC(=O)O)NC(=O)[C@H]([C@@H](C)O)NC(=O)[C@H](C(C)C)NC(=O)[C@H](CC3CCCCC3)NC(=O)[C@H](CCN)NC(=O)[C@@H](CC(C)C)NC(=O)[C@H](CCCN)NC(=O)[C@H](CCCNC(N)=O)NC(=O)[C@H](Cc3ccc(-c4ccccc4)cc3)NC(=O)[C@H](C(C)C)NC2=O)c1 [Compound 1008] ({CH2CO}-[Dap]Y(Carboxymethyl)D[Phe(3-Me)]V[Bip][Cit][Orn][dL][Dab][Cha]VTCAD[AEEA][Aun]-OH; thioether N-14) | 7.98
Cc1cccc(C[C@@H]2NC(=O)[C@H](CC(=O)O)NC(=O)[C@H](Cc3ccc(OCC(=O)O)cc3)NC(=O)[C@H](CN)NC(=O)CSC[C@@H](C(=O)N[C@@H](C)C(=O)N[C@@H](CC(=O)NCCOCCOCC(=O)NCCCCCCCCCCC(=O)O)C(=O)O)NC(=O)[C@H]([C@@H](C)O)NC(=O)[C@H](C(C)C)NC(=O)[C@H](CC3CCCCC3)NC(=O)[C@H](CCN)NC(=O)[C@@H](CC(C)C)NC(=O)[C@H](CCCN)NC(=O)[C@H](CCCNC(N)=O)NC(=O)[C@H](Cc3ccc(-c4ccccc4)cc3)NC(=O)[C@H](C(C)C)NC2=O)c1 [Compound 1010] ({CH2CO}-[Dap]Y(Carboxymethyl)D[Phe(3-Me)]V[Bip][Cit][Orn][dL][Dab][Cha]VTCA[βAsp][AEEA][Aun]-OH; thioether N-14) | 8.20

Results, then the compound that gave them:

pIC50 | Compound
8.26 | Cc1cccc(C[C@@H]2NC(=O)[C@H](CC(=O)O)NC(=O)[C@H](Cc3ccc(OCC(=O)O)cc3)NC(=O)[C@H](CN)NC(=O)CSC[C@@H](C(=O)N[C@@H](C)C(=O)N[C@@H](CCC(=O)O)C(=O)NCC(=O)NCCCCCCCCCCC(=O)O)NC(=O)[C@H]([C@@H](C)O)NC(=O)[C@H](C(C)C)NC(=O)[C@H](CC3CCCCC3)NC(=O)[C@H](CCN)NC(=O)[C@@H](CC(C)C)NC(=O)[C@H](CCCN)NC(=O)[C@H](CCCNC(N)=O)NC(=O)[C@H](Cc3ccc(-c4ccccc4)cc3)NC(=O)[C@H](C(C)C)NC2=O)c1 [Compound 1000] ({CH2CO}-[Dap]Y(Carboxymethyl)D[Phe(3-Me)]V[Bip][Cit][Orn][dL][Dab][Cha]VTCAEG[Aun]-OH; thioether N-14)
8.22 | Cc1cccc(C[C@@H]2NC(=O)[C@H](CC(=O)O)NC(=O)[C@H](Cc3ccc(OCC(=O)O)cc3)NC(=O)[C@H](CN)NC(=O)CSC[C@@H](C(=O)N[C@@H](C)C(=O)N[C@@H](CC(=O)O)C(=O)NCC(=O)NCCCCCCCCCCC(=O)O)NC(=O)[C@H]([C@@H](C)O)NC(=O)[C@H](C(C)C)NC(=O)[C@H](CC3CCCCC3)NC(=O)[C@H](CCN)NC(=O)[C@@H](CC(C)C)NC(=O)[C@H](CCCN)NC(=O)[C@H](CCCNC(N)=O)NC(=O)[C@H](Cc3ccc(-c4ccccc4)cc3)NC(=O)[C@H](C(C)C)NC2=O)c1 [Compound 1002] ({CH2CO}-[Dap]Y(Carboxymethyl)D[Phe(3-Me)]V[Bip][Cit][Orn][dL][Dab][Cha]VTCADG[Aun]-OH; thioether N-14)
8.59 | Cc1cccc(C[C@@H]2NC(=O)[C@H](CC(=O)O)NC(=O)[C@H](Cc3ccc(OCC(=O)O)cc3)NC(=O)[C@H](CN)NC(=O)CSC[C@@H](C(=O)N[C@@H](C)C(=O)N[C@@H](CCC(=O)O)C(=O)NCCOCCOCC(=O)NCCCCCCCCCCC(=O)O)NC(=O)[C@H]([C@@H](C)O)NC(=O)[C@H](C(C)C)NC(=O)[C@H](CC3CCCCC3)NC(=O)[C@H](CCN)NC(=O)[C@@H](CC(C)C)NC(=O)[C@H](CCCN)NC(=O)[C@H](CCCNC(N)=O)NC(=O)[C@H](Cc3ccc(-c4ccccc4)cc3)NC(=O)[C@H](C(C)C)NC2=O)c1 [Compound 1004] ({CH2CO}-[Dap]Y(Carboxymethyl)D[Phe(3-Me)]V[Bip][Cit][Orn][dL][Dab][Cha]VTCAE[AEEA][Aun]-OH; thioether N-14)
8.04 | Cc1cccc(C[C@@H]2NC(=O)[C@H](CC(=O)O)NC(=O)[C@H](Cc3ccc(OCC(=O)O)cc3)NC(=O)[C@H](CN)NC(=O)CSC[C@@H](C(=O)N[C@@H](C)C(=O)N[C@@H](CC(=O)O)C(=O)NCCCCCCCCCCC(=O)O)NC(=O)[C@H]([C@@H](C)O)NC(=O)[C@H](C(C)C)NC(=O)[C@H](CC3CCCCC3)NC(=O)[C@H](CCN)NC(=O)[C@@H](CC(C)C)NC(=O)[C@H](CCCN)NC(=O)[C@H](CCCNC(N)=O)NC(=O)[C@H](Cc3ccc(-c4ccccc4)cc3)NC(=O)[C@H](C(C)C)NC2=O)c1 [Compound 1006] ({CH2CO}-[Dap]Y(Carboxymethyl)D[Phe(3-Me)]V[Bip][Cit][Orn][dL][Dab][Cha]VTCAD[Aun]-OH; thioether N-14)
8.10 | Cc1cccc(C[C@@H]2NC(=O)[C@H](CC(=O)O)NC(=O)[C@H](Cc3ccc(OCC(=O)O)cc3)NC(=O)[C@H](CN)NC(=O)CSC[C@@H](C(=O)N[C@@H](C)C(=O)NCCOCCOCC(=O)N[C@@H](CCC(=O)O)C(=O)NCCCCCCCCCCC(=O)O)NC(=O)[C@H]([C@@H](C)O)NC(=O)[C@H](C(C)C)NC(=O)[C@H](CC3CCCCC3)NC(=O)[C@H](CCN)NC(=O)[C@@H](CC(C)C)NC(=O)[C@H](CCCN)NC(=O)[C@H](CCCNC(N)=O)NC(=O)[C@H](Cc3ccc(-c4ccccc4)cc3)NC(=O)[C@H](C(C)C)NC2=O)c1 [Compound 1007] ({CH2CO}-[Dap]Y(Carboxymethyl)D[Phe(3-Me)]V[Bip][Cit][Orn][dL][Dab][Cha]VTCA[AEEA]E[Aun]-OH; thioether N-14)
8.06 | Cc1cccc(C[C@@H]2NC(=O)[C@H](CC(=O)O)NC(=O)[C@H](Cc3ccc(OCC(=O)O)cc3)NC(=O)[C@H](CN)NC(=O)CSC[C@@H](C(=O)N[C@@H](C)C(=O)N[C@@H](CCC(=O)NCC(=O)NCCCCCCCCCCC(=O)O)C(=O)O)NC(=O)[C@H]([C@@H](C)O)NC(=O)[C@H](C(C)C)NC(=O)[C@H](CC3CCCCC3)NC(=O)[C@H](CCN)NC(=O)[C@@H](CC(C)C)NC(=O)[C@H](CCCN)NC(=O)[C@H](CCCNC(N)=O)NC(=O)[C@H](Cc3ccc(-c4ccccc4)cc3)NC(=O)[C@H](C(C)C)NC2=O)c1 [Compound 1011] ({CH2CO}-[Dap]Y(Carboxymethyl)D[Phe(3-Me)]V[Bip][Cit][Orn][dL][Dab][Cha]VTCA[γGlu]G[Aun]-OH; thioether N-14)
